Assays:
TIR1 = TIR1 (Arabidopsis thaliana, UniProt Q38825+Q570C0); type: binding
ccvTIR1 (TIR1^F79G) = ccvTIR1 (TIR1^F79G) (Arabidopsis thaliana, UniProt Q38825+Q570C0, Q570C0:F79G); type: binding
Sequence of ccvTIR1 (TIR1^F79G) (Q570C0 whole entry F79G, other chains not shown): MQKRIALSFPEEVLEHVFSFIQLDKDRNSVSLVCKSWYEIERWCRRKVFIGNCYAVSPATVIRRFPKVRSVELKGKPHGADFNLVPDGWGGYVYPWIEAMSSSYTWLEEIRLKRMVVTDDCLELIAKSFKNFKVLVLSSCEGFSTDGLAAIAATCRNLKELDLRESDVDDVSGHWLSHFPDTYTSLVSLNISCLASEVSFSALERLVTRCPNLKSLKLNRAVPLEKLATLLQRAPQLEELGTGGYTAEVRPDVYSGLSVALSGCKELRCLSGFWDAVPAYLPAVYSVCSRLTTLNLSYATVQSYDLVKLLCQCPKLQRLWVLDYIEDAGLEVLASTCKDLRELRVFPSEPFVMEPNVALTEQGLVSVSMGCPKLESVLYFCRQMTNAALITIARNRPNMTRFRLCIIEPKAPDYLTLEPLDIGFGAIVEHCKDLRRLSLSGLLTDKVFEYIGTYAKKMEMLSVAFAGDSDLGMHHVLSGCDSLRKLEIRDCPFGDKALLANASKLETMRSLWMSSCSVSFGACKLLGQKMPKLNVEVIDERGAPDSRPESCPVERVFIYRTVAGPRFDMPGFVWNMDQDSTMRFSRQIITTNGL

Sequence of TIR1 (Q570C0 whole entry, other chains not shown): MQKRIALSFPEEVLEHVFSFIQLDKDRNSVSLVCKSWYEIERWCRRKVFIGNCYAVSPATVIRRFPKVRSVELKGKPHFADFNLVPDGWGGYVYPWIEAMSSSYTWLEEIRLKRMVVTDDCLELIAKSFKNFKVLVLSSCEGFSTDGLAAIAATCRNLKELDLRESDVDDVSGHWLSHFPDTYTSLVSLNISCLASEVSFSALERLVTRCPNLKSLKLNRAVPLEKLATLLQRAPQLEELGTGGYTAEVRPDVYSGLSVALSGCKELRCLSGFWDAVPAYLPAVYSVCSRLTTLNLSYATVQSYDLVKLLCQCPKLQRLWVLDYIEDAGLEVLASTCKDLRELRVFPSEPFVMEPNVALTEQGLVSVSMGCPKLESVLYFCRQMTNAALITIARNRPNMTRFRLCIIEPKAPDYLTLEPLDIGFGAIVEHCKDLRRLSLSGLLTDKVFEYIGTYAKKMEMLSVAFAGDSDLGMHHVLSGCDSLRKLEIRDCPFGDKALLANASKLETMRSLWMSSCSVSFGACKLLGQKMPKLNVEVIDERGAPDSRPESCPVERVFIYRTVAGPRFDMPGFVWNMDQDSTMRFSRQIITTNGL

Row | EC50 (TIR1) | SMILES | EC50 (ccvTIR1 (TIR1^F79G))
1 | 11.5 ± 1.23 µM | O=C(O)Cc1c[nH]c2ccccc12 [IAA, indole-3-acetic acid] | –
2 | – | COc1cccc(-c2ccc3[nH]cc(CC(=O)O)c3c2)c1 [compound 1, 5-(3-methoxyphenyl)indole-3-acetic acid] | 3.98 ± 0.6 µM

From article PMC5812785 (Nature chemical biology, 2018)
